These results are taken from ChEMBL document CHEMBL1148500, “Inhibitory activity of cyclohexenyl chalcone derivatives and flavonoids of fingerroot, Boesenbergia rotunda (L.), towards dengue-2 virus NS3 protease” (Bioorg Med Chem Lett, 2006).

In test [1] the target is Genome polyprotein (dengue virus type 2) (UniProt P29990). Nature of the test: Inhibition of dengue2 virus NS2B/NS3 protease activity for Boc-Gly-Arg-Arg-MCA cleavage at 240 ppm.
Test [2] shares this target. Briefly: Inhibition of dengue2 virus NS2B/NS3 protease activity for Boc-Gly-Arg-Arg-MCA cleavage at 400 ppm.
The target is the same in test [3]. Nature of the test: Inhibition of dengue2 virus NS2B/NS3 protease activity for Boc-Gly-Arg-Arg-MCA cleavage at 120 ppm.
For another test, the target named is Genome polyprotein (dengue virus type 2, UniProt P29990). Nature of the test: Inhibition of dengue2 virus NS3 protease.
In test [4] the target is Genome polyprotein (dengue virus type 2) (UniProt P29990). Briefly: Inhibition of dengue2 virus NS2B/NS3 protease activity for Ac-Thr-Arg-Arg-MCA cleavage at 120 ppm.
For test [5] the target is unchanged. Nature of the test: Inhibition of dengue2 virus NS2B/NS3 protease activity for Boc-Gly-Arg-Arg-MCA cleavage at 40 ppm.
For test [6] the target is unchanged. Briefly: Inhibition of dengue2 virus NS2B/NS3 protease activity for Boc-Gly-Arg-Arg-MCA cleavage at 80 ppm.
For test [7] the target is unchanged. Briefly: Inhibition of dengue2 virus NS2B/NS3 protease activity for Boc-Gly-Arg-Arg-MCA cleavage at 160 ppm.
Test [8] has the same target. Nature of the test: Inhibition of dengue2 virus NS2B/NS3 protease activity for Ac-Thr-Arg-Arg-MCA cleavage at 240 ppm.
For test [9] the target is unchanged. Nature of the test: Inhibition of dengue2 virus NS2B/NS3 protease activity for Ac-Thr-Arg-Arg-MCA cleavage at 400 ppm.

In the case of `O=C1C[C@@H](c2ccccc2)Oc2cc(O)cc(O)c21`, the inhibition in test [1] stood at 47.3%; in [2], 56.1%; in test [3], 30.1%.

Consider `COc1cc(O)cc(O)c1C(=O)/C=C/c1ccccc1` [CARDAMOMIN], for which the inhibition is 50.1% in test [1], 71.3% in test [2] and 39.4% in test [3]. Further, the Ki on Genome polyprotein amounted to 377 µM.

With `CC(C)=CC[C@@H]1C(C)=CC[C@@H](c2ccccc2)[C@@H]1C(=O)c1c(O)cc(O)cc1O` [4-HYDROXYPANDURATIN A], the inhibition in [4] is 90.4%; in [5], 52%; in test [1] it was 97.3%; in test [2], 99.8%; in test [6], 78.1%; in [7], 96%. In addition, the inhibition in test [8] amounted to 96.1%; in test [3], 87.6%; in test [9], 99.2%. This compound also showed a Ki on Genome polyprotein of 21 µM.

Regarding `COc1cc(O)c2c(c1)O[C@H](c1ccccc1)CC2=O` [PINOSTROBIN], the inhibition in [4] is 76.7%; in [8], 80.7%; in test [9] it was 88.7%. This compound also had a Ki on Genome polyprotein of 345 µM.

Regarding `COc1cc(O)c(C(=O)[C@@H]2[C@H](CC=C(C)C)C(C)=CC[C@H]2c2ccccc2)c(O)c1` [PANDURATIN A], the inhibition in test [4] turned out to be 47.5%; in test [5] it was 27.1%; in test [1], 92.2%; in test [2] it was 99.8%; in test [6] it was 66.7%; in test [7], 93.7%. Besides, the inhibition was found to be 59.6% in test [8], 87.7% in test [3] and 90.4% in test [9]. At Genome polyprotein, this compound registered a Ki of 25 µM.

The inhibition is how much of the control response was suppressed. Higher therefore signals strong suppression. Broadly, the Ki is the equilibrium dissociation constant of an inhibitor or competing ligand from its target.
